Tests used:
SdaC = target: T1, SdaC (Escherichia coli, UniProt P0AAD6); test: radiolabelled uptake by whole cells, sdaC+ versus sdaC deletion; type: cell-based; details: M9 medium, 0.2% glucose, 37 °C; 100 μM L-serine; strain B2394 versus B2429; labelled compound (14C)
T1 construct: full-length native chromosomal sdaC, no tag; whole-cell uptake in strain lacking the other carriers, compared with its sdaC deletion B2429

[1] = substrate: C[C@@H](O)[C@H](N)C(=O)O; test: radiolabelled uptake by whole cells, initial velocity, Lineweaver-Burk; type: cell-based, Escherichia coli; details: M9 medium, 0.2% glucose, 37 °C, strain B2394[pMW-liv] overexpressing LIV-I, labelled compound (14C)

T1 sequence (P0AAD6 whole entry): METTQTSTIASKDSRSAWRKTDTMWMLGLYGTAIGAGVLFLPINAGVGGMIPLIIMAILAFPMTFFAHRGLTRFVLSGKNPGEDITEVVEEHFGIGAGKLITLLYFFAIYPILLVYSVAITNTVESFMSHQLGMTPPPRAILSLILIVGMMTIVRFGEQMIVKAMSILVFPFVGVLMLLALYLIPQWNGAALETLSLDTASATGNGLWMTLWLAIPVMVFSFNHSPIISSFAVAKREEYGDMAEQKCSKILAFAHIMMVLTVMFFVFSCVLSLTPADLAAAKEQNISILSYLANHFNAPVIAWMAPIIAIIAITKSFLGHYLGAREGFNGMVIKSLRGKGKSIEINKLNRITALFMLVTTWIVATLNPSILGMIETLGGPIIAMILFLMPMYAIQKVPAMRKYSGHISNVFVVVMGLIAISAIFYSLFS

Molecule | radiolabelled uptake by whole cells, sdaC+ versus sdaC deletion (SdaC) | Km [1] [µM]
N[C@@H](CO)C(=O)O [L-serine] | serine transport activity of the B2394 strain possessing SdaC as the sole transporter | –
LIV-I branched chain amino acid transport system (Escherichia coli K-12) (protein, whole-cell uptake, ABC transporter) EDIKVAVVGAMSGPVAQYGDQEFTGAEQAVADINAKGGIKGNKLQIVKYDDACDPKQAVAVANKVVNDGIKYVIGHLCSSSTQPASDIYEDEGILMITPAATAPELTARGYQLILRTTGLDSDQGPTAAKYILEKVKPQRIAIVHDKQQYGEGLARAVQDGLKKGNANVVFFDGITAGEKDFSTLVARLKKENIDFVYYGGYHPEMGQILRQARAAGLKTQFMGPEGVANVSLSNIAGESAEGLLVTKPKNYDQVPANKPIVDAIKAKKQDPSGAFVWTTYAALQSLQAGLNQSDDPAEIAKYLKANSVDTVMGPLTWDEKGDLKGFEFGVFDWHANGTATDAK | – | 13.0 ± 0.9

Source: paper PMC10070963 (Frontiers in Microbiology, 2023)
